Measured values as given in patent publication US6355799B1, “Substituted benzene compounds, process for their preparation, and herbicidal and defoliant compositions containing them” (ISK Americas Incorporated, priority 1997, dated 2002).

Experiments:
Type in all cases: in vivo
[1] = test system: redroot pigweed (Amaranthus retroflexus, AMARE); test: Pre-emerge test, greenhouse herbicide activity screening; details: rated 14 days after application, 0 = no damage, 100 = complete death
Outline: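 Sandy loam pots; pre-emerge: sown 1 d pre-spray, surface-watered after, then bottom-watered. Post-emerge: sown 8–21 d before, 2–3 leaf stage, + 0.25% v/v NIS, bottom-watered. Acetone, 187 l/ha track spray, 15–1000 g ai/ha. 0–100 injury score, day 14.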

[2] = test system: barnyardgrass (Echinochloa crus-galli, ECHCG); test: as above; details: rated 14 days after application, 0 = no damage, 100 = complete death
Outline: (§1)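 Fourteen days after spraying, crop and weed injury was graded visually from 0, no effect, to 100, every plant dead. Test substances were dissolved in acetone and applied at 15–1000 g ai/ha with a flat-fan nozzle. Application was either pre-emergence, one day after sowing, or post-emergence at the 2–3 leaf stage.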

[3] = test system: common ragweed (Ambrosia artemisizfolia L., AMBEL); test: as above; details: rated 14 days after application, 0 = no damage, 100 = complete death
Outline: as §1

[4] = test system: green foxtail (Setaria viridis, SETVI); test: as above; details: rated 14 days after application, 0 = no damage, 100 = complete death
Outline: as §1

[5] = test system: ivyleaf morningglory (Ipomoea hederacea, IPOHE); test: as above; details: rated 14 days after application, 0 = no damage, 100 = complete death
Outline: as §1

[6] = test system: johnsongrass (Sorghum halepense, SORHA); test: as above; details: rated 14 days after application, 0 = no damage, 100 = complete death
Outline: as §1

[7] = test system: lambsquarters (Chenopodium album, CHEAL); test: as above; details: rated 14 days after application, 0 = no damage, 100 = complete death
Outline: as §1

[8] = test system: large crabgrass (Digitaria sanguinalis, DIGSA); test: as above; details: rated 14 days after application, 0 = no damage, 100 = complete death
Outline: as §1

[9] = test system: sicklepod (Cassia obtusifolia, CASOB); test: as above; details: rated 14 days after application, 0 = no damage, 100 = complete death
Outline: as §1

[10] = test system: velvetleaf (Abutilon theophrasti, ABUTH); test: as above; details: rated 14 days after application, 0 = no damage, 100 = complete death
Outline: as §1

[11] = test system: field corn (Zea mays L., var. Dekalb 535, CORN); test: Pre-emerge test, crop safety; details: rated 14 days after application, 0 = no damage, 100 = complete death
Outline: as §1

[12] = test system: upland rice (Oryza sp., var. Tebonnet, RICE); test: Pre-emerge test, crop safety; details: rated 14 days after application, 0 = no damage, 100 = complete death
Outline: as §1

[13] = test system: barnyardgrass (Echinochloa crus-galli, ECHCG); test: Post-emerge test, greenhouse herbicide activity screening; details: post-emerge, 14 days after application, rating scale 0-100
Outline: (§2)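 Plants grown in 10 cm pots of sandy loam mix received acetone-dissolved compounds through a moving flat-fan nozzle. Doses ranged from 15 to 1000 g ai/ha. Pre-emerge pots were seeded one day earlier, post-emerge pots 8–21 days earlier. Fourteen days on, each pot was graded 0–100 for damage.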

[14] = test system: common ragweed (Ambrosia artemisizfolia L., AMBEL); test: as above; details: post-emerge, 14 days after application, rating scale 0-100
Outline: as §2

[15] = test system: green foxtail (Setaria viridis, SETVI); test: as above; details: post-emerge, 14 days after application, rating scale 0-100
Outline: as §2

[16] = test system: ivyleaf morningglory (Ipomoea hederacea, IPOHE); test: as above; details: post-emerge, 14 days after application, rating scale 0-100
Outline: as §2

[17] = test system: johnsongrass (Sorghum halepense, SORHA); test: as above; details: post-emerge, 14 days after application, rating scale 0-100
Outline: as §2

[18] = test system: lambsquarters (Chenopodium album, CHEAL); test: as above; details: post-emerge, 14 days after application, rating scale 0-100
Outline: as §2

[19] = test system: large crabgrass (Digitaria sanguinalis, DIGSA); test: as above; details: post-emerge, 14 days after application, rating scale 0-100
Outline: as §2

[20] = test system: redroot pigweed (Amaranthus retroflexus, AMARE); test: as above; details: post-emerge, 14 days after application, rating scale 0-100
Outline: as §2

[21] = test system: sicklepod (Cassia obtusifolia, CASOB); test: as above; details: post-emerge, 14 days after application, rating scale 0-100
Outline: as §2

[22] = test system: velvetleaf (Abutilon theophrasti, ABUTH); test: as above; details: post-emerge, 14 days after application, rating scale 0-100
Outline: as §2

[23] = test system: field corn (Zea mays L., var. Dekalb 535, CORN); test: Post-emerge test, crop safety; details: post-emerge, 14 days after application, rating scale 0-100
Outline: as §1

[24] = test system: upland rice (Oryza sp., var. Tebonnet, RICE); test: Post-emerge test, crop safety; details: post-emerge, 14 days after application, rating scale 0-100
Outline: as §1

Structure (SMILES): COc1c(Cl)cc(F)c(-n2c(=O)cc(C(F)(F)F)n(C)c2=O)c1NC(=O)c1ccc(C#N)cc1 [2-67]
- Pre-emerge Herbicidal Activity, phytotoxicity rating (0-100), AMARE ([1]; 63 g ai/ha): 100
- Pre-emerge Herbicidal Activity, phytotoxicity rating (0-100), AMARE ([1]; 250 g ai/ha): 100
- Pre-emerge Herbicidal Activity, phytotoxicity rating (0-100), ECHCG ([2]; 63 g ai/ha): 50
- Pre-emerge Herbicidal Activity, phytotoxicity rating (0-100), ECHCG ([2]; 250 g ai/ha): 95
- Pre-emerge Herbicidal Activity, phytotoxicity rating (0-100), AMBEL ([3]; 63 g ai/ha): 100
- Pre-emerge Herbicidal Activity, phytotoxicity rating (0-100), AMBEL ([3]; 250 g ai/ha): 100
- Pre-emerge Herbicidal Activity, phytotoxicity rating (0-100), SETVI ([4]; 63 g ai/ha): 100
- Pre-emerge Herbicidal Activity, phytotoxicity rating (0-100), SETVI ([4]; 250 g ai/ha): 100
- Pre-emerge Herbicidal Activity, phytotoxicity rating (0-100), IPOHE ([5]; 63 g ai/ha): 100
- Pre-emerge Herbicidal Activity, phytotoxicity rating (0-100), IPOHE ([5]; 250 g ai/ha): 100
- Pre-emerge Herbicidal Activity, phytotoxicity rating (0-100), SORHA ([6]; 63 g ai/ha): 80
- Pre-emerge Herbicidal Activity, phytotoxicity rating (0-100), SORHA ([6]; 250 g ai/ha): 100
- Pre-emerge Herbicidal Activity, phytotoxicity rating (0-100), CHEAL ([7]; 63 g ai/ha): 100
- Pre-emerge Herbicidal Activity, phytotoxicity rating (0-100), CHEAL ([7]; 250 g ai/ha): 100
- Pre-emerge Herbicidal Activity, phytotoxicity rating (0-100), DIGSA ([8]; 63 g ai/ha): 100
- Pre-emerge Herbicidal Activity, phytotoxicity rating (0-100), DIGSA ([8]; 250 g ai/ha): 100
- Pre-emerge Herbicidal Activity, phytotoxicity rating (0-100), CASOB ([9]; 63 g ai/ha): 100
- Pre-emerge Herbicidal Activity, phytotoxicity rating (0-100), CASOB ([9]; 250 g ai/ha): 100
- Pre-emerge Herbicidal Activity, phytotoxicity rating (0-100), ABUTH ([10]; 63 g ai/ha): 100
- Pre-emerge Herbicidal Activity, phytotoxicity rating (0-100), ABUTH ([10]; 250 g ai/ha): 100
- Pre-emerge phytotoxicity rating (0-100), crop damage, CORN ([11]; 63 g ai/ha): 90
- Pre-emerge phytotoxicity rating (0-100), crop damage, CORN ([11]; 250 g ai/ha): 99
- Pre-emerge phytotoxicity rating (0-100), crop damage, RICE ([12]; 63 g ai/ha): 90
- Pre-emerge phytotoxicity rating (0-100), crop damage, RICE ([12]; 250 g ai/ha): 90
- phytotoxicity rating ECHCG ([13]; 63 g ai/ha): 0
- phytotoxicity rating ECHCG ([13]; 250 g ai/ha): 40
- phytotoxicity rating AMBEL ([14]; 63 g ai/ha): 100
- phytotoxicity rating AMBEL ([14]; 250 g ai/ha): 100
- phytotoxicity rating SETVI ([15]; 63 g ai/ha): 20
- phytotoxicity rating SETVI ([15]; 250 g ai/ha): 30
- phytotoxicity rating IPOHE ([16]; 63 g ai/ha): 99
- phytotoxicity rating IPOHE ([16]; 250 g ai/ha): 100
- phytotoxicity rating SORHA ([17]; 63 g ai/ha): 0
- phytotoxicity rating SORHA ([17]; 250 g ai/ha): 80
- phytotoxicity rating CHEAL ([18]; 63 g ai/ha): 100
- phytotoxicity rating CHEAL ([18]; 250 g ai/ha): 100
- phytotoxicity rating DIGSA ([19]; 63 g ai/ha): 0
- phytotoxicity rating DIGSA ([19]; 250 g ai/ha): 40
- phytotoxicity rating AMARE ([20]; 63 g ai/ha): 100
- phytotoxicity rating AMARE ([20]; 250 g ai/ha): 100
- phytotoxicity rating CASOB ([21]; 63 g ai/ha): 100
- phytotoxicity rating CASOB ([21]; 250 g ai/ha): 100
- phytotoxicity rating ABUTH ([22]; 63 g ai/ha): 100
- phytotoxicity rating ABUTH ([22]; 250 g ai/ha): 100
- phytotoxicity rating CORN ([23]; 63 g ai/ha): 20
- phytotoxicity rating CORN ([23]; 250 g ai/ha): 95
- phytotoxicity rating RICE ([24]; 63 g ai/ha): 70
- phytotoxicity rating RICE ([24]; 250 g ai/ha): 80

Structure (SMILES): COc1c(Cl)cc(F)c(-n2c(=O)cc(C(F)(F)F)n(C)c2=O)c1N(C(=O)c1ccc([N+](=O)[O-])cc1)C(=O)c1ccc([N+](=O)[O-])cc1 [2-69]
- Pre-emerge Herbicidal Activity, phytotoxicity rating (0-100), AMARE ([1]; 63 g ai/ha): 90
- Pre-emerge Herbicidal Activity, phytotoxicity rating (0-100), AMARE ([1]; 250 g ai/ha): 100
- Pre-emerge Herbicidal Activity, phytotoxicity rating (0-100), ECHCG ([2]; 63 g ai/ha): 0
- Pre-emerge Herbicidal Activity, phytotoxicity rating (0-100), ECHCG ([2]; 250 g ai/ha): 10
- Pre-emerge Herbicidal Activity, phytotoxicity rating (0-100), AMBEL ([3]; 63 g ai/ha): 50
- Pre-emerge Herbicidal Activity, phytotoxicity rating (0-100), AMBEL ([3]; 250 g ai/ha): 60
- Pre-emerge Herbicidal Activity, phytotoxicity rating (0-100), SETVI ([4]; 63 g ai/ha): 70
- Pre-emerge Herbicidal Activity, phytotoxicity rating (0-100), SETVI ([4]; 250 g ai/ha): 95
- Pre-emerge Herbicidal Activity, phytotoxicity rating (0-100), IPOHE ([5]; 63 g ai/ha): 0
- Pre-emerge Herbicidal Activity, phytotoxicity rating (0-100), IPOHE ([5]; 250 g ai/ha): 40
- Pre-emerge Herbicidal Activity, phytotoxicity rating (0-100), SORHA ([6]; 63 g ai/ha): 0
- Pre-emerge Herbicidal Activity, phytotoxicity rating (0-100), SORHA ([6]; 250 g ai/ha): 30
- Pre-emerge Herbicidal Activity, phytotoxicity rating (0-100), CHEAL ([7]; 63 g ai/ha): 100
- Pre-emerge Herbicidal Activity, phytotoxicity rating (0-100), CHEAL ([7]; 250 g ai/ha): 100
- Pre-emerge Herbicidal Activity, phytotoxicity rating (0-100), DIGSA ([8]; 63 g ai/ha): 20
- Pre-emerge Herbicidal Activity, phytotoxicity rating (0-100), DIGSA ([8]; 250 g ai/ha): 90
- Pre-emerge Herbicidal Activity, phytotoxicity rating (0-100), CASOB ([9]; 63 g ai/ha): 0
- Pre-emerge Herbicidal Activity, phytotoxicity rating (0-100), CASOB ([9]; 250 g ai/ha): 80
- Pre-emerge Herbicidal Activity, phytotoxicity rating (0-100), ABUTH ([10]; 63 g ai/ha): 100
- Pre-emerge Herbicidal Activity, phytotoxicity rating (0-100), ABUTH ([10]; 250 g ai/ha): 100
- Pre-emerge phytotoxicity rating (0-100), crop damage, CORN ([11]; 63 g ai/ha): 0
- Pre-emerge phytotoxicity rating (0-100), crop damage, CORN ([11]; 250 g ai/ha): 10
- Pre-emerge phytotoxicity rating (0-100), crop damage, RICE ([12]; 63 g ai/ha): 20
- Pre-emerge phytotoxicity rating (0-100), crop damage, RICE ([12]; 250 g ai/ha): 30
- phytotoxicity rating ECHCG ([13]; 63 g ai/ha): 0
- phytotoxicity rating ECHCG ([13]; 250 g ai/ha): 0
- phytotoxicity rating AMBEL ([14]; 63 g ai/ha): 40
- phytotoxicity rating AMBEL ([14]; 250 g ai/ha): 30
- phytotoxicity rating SETVI ([15]; 63 g ai/ha): 0
- phytotoxicity rating SETVI ([15]; 250 g ai/ha): 0
- phytotoxicity rating IPOHE ([16]; 63 g ai/ha): 50
- phytotoxicity rating IPOHE ([16]; 250 g ai/ha): 40
- phytotoxicity rating SORHA ([17]; 63 g ai/ha): 0
- phytotoxicity rating SORHA ([17]; 250 g ai/ha): 0
- phytotoxicity rating CHEAL ([18]; 63 g ai/ha): 50
- phytotoxicity rating CHEAL ([18]; 250 g ai/ha): 60
- phytotoxicity rating DIGSA ([19]; 63 g ai/ha): 0
- phytotoxicity rating DIGSA ([19]; 250 g ai/ha): 0
- phytotoxicity rating AMARE ([20]; 63 g ai/ha): 40
- phytotoxicity rating AMARE ([20]; 250 g ai/ha): 50
- phytotoxicity rating CASOB ([21]; 63 g ai/ha): 10
- phytotoxicity rating CASOB ([21]; 250 g ai/ha): 30
- phytotoxicity rating ABUTH ([22]; 63 g ai/ha): 100
- phytotoxicity rating ABUTH ([22]; 250 g ai/ha): 100
- phytotoxicity rating CORN ([23]; 63 g ai/ha): 0
- phytotoxicity rating CORN ([23]; 250 g ai/ha): 0
- phytotoxicity rating RICE ([24]; 63 g ai/ha): 0
- phytotoxicity rating RICE ([24]; 250 g ai/ha): 0
